Test results from patent US20120164104A1, “Composition and Methods of Treating Viral Infections and Viral Induced Tumors” (Chimerix, Inc., priority 2009, published 2012).

What was measured:
COS-7 cells [1] = experiment: DNA replication of uninfected COS-7 cells (BrdU assay); assay type: cell-based; settings: Chlorocebus aethiops
Experimental: FIG. 14 illustrates the effect of increasing concentrations of CMX001 on replication of COS-7 cells. DNA replication was determined by BrdU incorporation. Medium with indicated CMX001 concentrations was added to COS-7 cells and absorbance measured 72 h post seeding. Absorbance for untreated cells was set as 100%. DNA synthesis was quantified by the colorimetric measurement of BrdU incorporation into DNA in proliferating cells using the ‘Cell proliferation ELISA, BrdU’ kit (Roche). COS-7 cells were seeded in 96 well plates and CMX001 was added at indicated concentrations. Absorbance at 450 nm (sample) and at 650 nm (background) was determined 2 h after addition of the substrate.

JCV Mad-4 [2] = experiment: JCV VP1 late gene expression in COS-7 cells (immunofluorescence); assay type: cell-based; settings: 7 d.p.i.
Text: FIG. 16 illustrates the effect of increasing concentrations of CMX001 on expression of JCV proteins. Indirect immunofluorescence of JCV-infected COS-7 cells treated with indicated concentrations of CMX001, fixed 7 d.p.i. and stained with rabbit anti-VP1 serum (red) for visualization of the late capsid protein VP1 and with Höchst 33342 dye to show DNA (blue). The merged pictures are shown in the right panel.
Cells were fixed with 4% p-formaldehyde (PFA) in phosphate-buffered saline, pH6.8 (PBS) at room temperature for 20 min and permeabilized with 0.2% Triton X-100 in PBS at room temperature for 10 min. After washing twice with PBS at room temperature for 5 min, PFA was quenched with 0.5 M NH4Cl in PBS at room temperature for 7 min followed washing twice with PBS at room temperature for 5 min. Blocking of unspecific binding sites was done with 3% milk in PBS at 37° C. for 15 min. Primary antibody (rabbit anti-VP1 1:300 in 3% milk PBS) was incubated at 37° C. for 45-60 min. Cells were washed twice with PBS on a shaker at room temperature for 5 min. Secondary antibody (chicken anti-rabbit Cy3 1:2000) and 5 μg/ml Höchst 33342 dye to stain DNA was given to the cells then incubated at 37° C. for 45-60 min. Cells were washed twice with PBS as before. Coverslips were mounted in NPropylgallat. […]

COS-7 = experiment: Inspection of COS-7 by phase contrast microscopy; assay type: cell-based; settings: 7 day exposure to CMX001 0.6 μM
COS-7 cells [3] = experiment: Metabolic activity of uninfected COS-7 cells (WST-1 assay); assay type: cell-based
Experimental: Metabolic activity was examined as WST-1 cleavage. Medium with indicated CMX001 concentrations was added to COS-7 cells and absorbance measured 72 h post seeding. Absorbance for untreated cells was set as 100%. The metabolic activity was monitored by the colorimetric WST-1 assay (Roche) of the mitochondrial dehydrogenases in viable cells. COS-7 cells were seeded in 96 well plates and CMX001 was added at indicated concentrations. The WST-1 cleavage product was measured at 450 nm (sample) and at 650 nm (background). WST-1 plus medium alone served as blank.

BKV = experiment: Stability of CMX001 stock solution, tested by antiviral effect on extracellular BKV load; assay type: cell-based; settings: diluted to 0.31 uM
Experimental: FIG. 7 illustrates the stability of CMX001. For FIG. 7, BKV-infected RPTECs were treated with freshly made CMX001 or CMX001 from a stock solution at 1 mg/ml stored for one week at 4° C. or −20° C. Supernatants were harvested 72 h p.i. and extracellular BKV load measured by qPCR. Data are presented as BKV load in percent of untreated cells set at 100%.
To examine the stability of CMX001 stock solution 1 mg/ml was put in 4 or −20° C. for one week then diluted to 0.31 uM and tested for its antiviral effect by measuring the extracellular BKV load in BKV-infected RPTEC 3 d p.i.

JCV Mad-4 [4] = experiment: Extracellular JCV load in JCV-infected COS-7 cells (qPCR); assay type: cell-based
Experimental: COS-7 supernatants were harvested 5 […] post start of treatment with indicated CMX001 concentrations. JCV load was measured by qPCR and input virus subtracted. DNA load in untreated cells (5.04×10 E+9 geq/ml) was set as 100%. Replication of JCV is shown as percentage of untreated cells to determine the IC-50 and IC-90. […] Supernatants from CMX001-treated and untreated JCV-infected COS-7 cells were harvested at indicated timepoints after infection and JCV load measured by qPCR. Data are presented as JCV load in log geq/ml. COS-7 or astrocyte cells were infected at a confluence of 60-70% with JCV(Mad-4) at an estimated TCID50 of 0.2. After 2 h incubation at 37° C., supernatants were replaced with fresh medium without or with increasing concentration CMX001. […] JCV loads were quantified after DNA extraction from 100 ul cell culture supernatants and the Corbett X-tractor Gene and the Corbett VX reagents (Qiagen, Hombrechtikon, Switzerland). The real-time PCR protocol for detection of JCV DNA samples targets the JCV large T coding sequence and has been described elsewhere (5). To investigate the effect of CMX001 on JCV progeny, increasing concentrations of CMX001 were added at 2 h p.i. and supernatants harvested at 5 d.p.i. It was observed that CMX001 reduced the extracellular JCV load in a concentration dependent manner (FIG. 12).

RPTECs = experiment: Inspection of RPTECs by phase contrast microscopy; assay type: cell-based, human; settings: 3 day exposure to CMX001 0.31 μM

CCCCCCCCCCCCCCCCOCCCOP(=O)(O)CO[C@H](CO)Cn1ccc(N)nc1=O [CMX001]
IC50 (COS-7 cells [1]): ~600 nM
JCV VP1 signal by immunofluorescence (JCV Mad-4 [2]; CMX001 1.25 μM): significant reduction
JCV VP1 positive cells by immunofluorescence (JCV Mad-4 [2]; CMX001 5 μM): essentially no VP1 positive cells could be observed
signs of impaired viability (COS-7): did not reveal any signs of impaired viability
loss of metabolic activity (COS-7 cells [3]; CMX001 0.6 μM, COS-7): 17%
IC50 (COS-7 cells [3]; Chlorocebus aethiops, uninfected COS-7 cells): ~5000 nM
activity compared to the freshly prepared drug (BKV; stock 1 mg/ml stored one week at 4° C.): less than 60%
activity compared to the freshly prepared drug (BKV; stock 1 mg/ml stored one week at −20° C.): approximately 90%
change in the JCV load over 7 days (JCV Mad-4 [4]; 5 nM CMX001, COS-7): less than 1 log
IC50 (JCV Mad-4 [4]; 120 h, COS-7, day 5 p.i., viral input subtracted, read-out: inhibitory concentration IC-50 (extracellular JCV load)): 150 nM
IC90 (JCV Mad-4 [4]; 120 h, COS-7, day 5 p.i., viral input subtracted, read-out: inhibitory concentration IC-90 (extracellular JCV load)): 600 nM
reduction of JCV viral load (JCV Mad-4 [4]; CMX001 0.15 μM, day 5 p.i.): > 50%
IC-90 concentration lower than concentrations reported for CDV inhibition of JCV (JCV Mad-4 [4]; CMX001 0.6 μM, COS-7): 2 orders of magnitude
viral load at 7 d.p.i. relative to untreated cells at 3 d.p.i. (JCV Mad-4 [4]; CMX001 5 uM, COS-7): 91%
signs of impaired viability (RPTECs): did not reveal any signs of impaired viability
